Test system: 377384-186-R-J1-PDC complex spheroid viability
Experiment: Anticancer human tumor 377384-186-R-J1-PDC patient-derived pancreatic carcinoma cell line growth inhibition [CLK]
Details: for IC50: curve of first compound; for viability, T/C: stronger effect = lower value
Procedure, shortened: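 Patient-derived tumor cells grown as complex spheroids with HUVEC endothelial cells and mesenchymal stem cells, treated with drug combinations. Concentrations descend in half-log steps from near clinical Cmax, or from 10 microM if Cmax unknown.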

[1] = second compound 0.0316 µM, first compound 0.0316 µM
[2] = second compound 0.0316 µM, first compound 0.1 µM
[3] = second compound 0.0316 µM, first compound 0.316 µM
[4] = second compound 0.0316 µM, first compound 1 µM
[5] = second compound 0.0316 µM, first compound 3.16 µM
[6] = second compound 0.0316 µM, first compound 10 µM
[7] = second compound 0.1 µM, first compound 0.0316 µM
[8] = second compound 0.1 µM, first compound 0.1 µM
[9] = second compound 0.1 µM, first compound 0.316 µM
[10] = second compound 0.1 µM, first compound 1 µM
[11] = second compound 0.1 µM, first compound 3.16 µM
[12] = second compound 0.1 µM, first compound 10 µM
[13] = second compound 0.316 µM, first compound 0.0316 µM
[14] = second compound 0.316 µM, first compound 0.1 µM
[15] = second compound 0.316 µM, first compound 0.316 µM
[16] = second compound 0.316 µM, first compound 1 µM
[17] = second compound 0.316 µM, first compound 3.16 µM
[18] = second compound 0.316 µM, first compound 10 µM
[19] = second compound 1 µM, first compound 0.0316 µM
[20] = second compound 1 µM, first compound 0.1 µM
[21] = second compound 1 µM, first compound 0.316 µM
[22] = second compound 1 µM, first compound 1 µM
[23] = second compound 1 µM, first compound 3.16 µM
[24] = second compound 1 µM, first compound 10 µM
[25] = second compound 3.16 µM, first compound 0.0316 µM
[26] = second compound 3.16 µM, first compound 0.1 µM
[27] = second compound 3.16 µM, first compound 0.316 µM
[28] = second compound 3.16 µM, first compound 1 µM
[29] = second compound 3.16 µM, first compound 3.16 µM
[30] = second compound 3.16 µM, first compound 10 µM
[31] = second compound 10 µM, first compound 0.0316 µM
[32] = second compound 10 µM, first compound 0.1 µM
[33] = second compound 10 µM, first compound 0.316 µM
[34] = second compound 10 µM, first compound 1 µM
[35] = second compound 10 µM, first compound 3.16 µM
[36] = second compound 10 µM, first compound 10 µM
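Note: spheroids exposed to agents for 7 days before reading.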
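Throughout, for viability, T/C: luminescence signal used as a stand-in for viable cells.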

CC(=O)O[C@H]1C(=O)[C@@]2(C)[C@H]([C@H](OC(=O)c3ccccc3)[C@]3(O)C[C@H](OC(=O)[C@H](O)[C@@H](NC(=O)c4ccccc4)c4ccccc4)C(C)=C1C3(C)C)[C@]1(OC(C)=O)CO[C@@H]1C[C@@H]2O + CNC(=O)c1ccc(Nc2nc(OC3CCCC3)c3c(-c4ccc5nc(C)oc5c4)c[nH]c3n2)c(OC)c1
IC50 (second compound 0.0316 µM): < 31.6 nM | IC50 (second compound 0.1 µM): < 31.6 nM | IC50 (second compound 0.316 µM): < 31.6 nM | IC50 (second compound 1 µM): < 31.6 nM | IC50 (second compound 3.16 µM): < 31.6 nM | IC50 (second compound 10 µM): < 31.6 nM | viability, T/C [1]: 11.1% | viability, T/C [2]: 9.78% | viability, T/C [3]: 11.1% | viability, T/C [4]: 10.2% | viability, T/C [5]: 12.7% | viability, T/C [6]: 20.1% | viability, T/C [7]: 14.4% | viability, T/C [8]: 16.9% | viability, T/C [9]: 20.5% | viability, T/C [10]: 21.8% | viability, T/C [11]: 28.9% | viability, T/C [12]: 35.2% | viability, T/C [13]: 20% | viability, T/C [14]: 21.2% | viability, T/C [15]: 29% | viability, T/C [16]: 36.6% | viability, T/C [17]: 42.3% | viability, T/C [18]: 47.3% | viability, T/C [19]: 21.7% | viability, T/C [20]: 22.3% | viability, T/C [21]: 29.6% | viability, T/C [22]: 37.9% | viability, T/C [23]: 40.5% | viability, T/C [24]: 49.1% | viability, T/C [25]: 18% | viability, T/C [26]: 21.7% | viability, T/C [27]: 27.5% | viability, T/C [28]: 34.4% | viability, T/C [29]: 38.6% | viability, T/C [30]: 45.5% | viability, T/C [31]: 17.7% | viability, T/C [32]: 22.3% | viability, T/C [33]: 29.7% | viability, T/C [34]: 37.2% | viability, T/C [35]: 38.7% | viability, T/C [36]: 42.8%

COc1ccc([C@@H](O)c2cc(-c3ncnc4cc(N5CCOCC5)ccc34)c(F)cc2Cl)nn1 + CNC(=O)c1ccc(Nc2nc(OC3CCCC3)c3c(-c4ccc5nc(C)oc5c4)c[nH]c3n2)c(OC)c1
IC50 (second compound 0.0316 µM): 1640 nM | IC50 (second compound 0.1 µM): < 31.6 nM | IC50 (second compound 0.316 µM): < 31.6 nM | IC50 (second compound 1 µM): < 31.6 nM | IC50 (second compound 3.16 µM): < 31.6 nM | IC50 (second compound 10 µM): < 31.6 nM | viability, T/C [1]: 93.6% | viability, T/C [2]: 99.5% | viability, T/C [3]: 92% | viability, T/C [4]: 54.9% | viability, T/C [5]: 49.6% | viability, T/C [6]: 29.4% | viability, T/C [7]: 36.8% | viability, T/C [8]: 33.5% | viability, T/C [9]: 40.5% | viability, T/C [10]: 35% | viability, T/C [11]: 26.5% | viability, T/C [12]: 19.5% | viability, T/C [13]: 16.1% | viability, T/C [14]: 14.4% | viability, T/C [15]: 17.4% | viability, T/C [16]: 16.6% | viability, T/C [17]: 16.1% | viability, T/C [18]: 13.6% | viability, T/C [19]: 15.9% | viability, T/C [20]: 18.2% | viability, T/C [21]: 18.3% | viability, T/C [22]: 15.9% | viability, T/C [23]: 15.3% | viability, T/C [24]: 15.5% | viability, T/C [25]: 14.7% | viability, T/C [26]: 17.8% | viability, T/C [27]: 18.1% | viability, T/C [28]: 16.2% | viability, T/C [29]: 16.6% | viability, T/C [30]: 15.5% | viability, T/C [31]: 15.7% | viability, T/C [32]: 13.2% | viability, T/C [33]: 17.6% | viability, T/C [34]: 15.7% | viability, T/C [35]: 17.3% | viability, T/C [36]: 15.4%

COc1cccc2c1C(=O)c1c(O)c3c(c(O)c1C2=O)CC(O)(C(=O)CO)CC3OC1CC(N)C(O)C(C)O1 (stereo unspecified) + CNC(=O)c1ccc(Nc2nc(OC3CCCC3)c3c(-c4ccc5nc(C)oc5c4)c[nH]c3n2)c(OC)c1
IC50 (second compound 0.0316 µM): < 31.6 nM | IC50 (second compound 0.1 µM): < 31.6 nM | IC50 (second compound 0.316 µM): < 31.6 nM | IC50 (second compound 1 µM): < 31.6 nM | IC50 (second compound 3.16 µM): < 31.6 nM | IC50 (second compound 10 µM): < 31.6 nM | viability, T/C [1]: 10.2% | viability, T/C [2]: 4.37% | viability, T/C [3]: 1.55% | viability, T/C [4]: 0.38% | viability, T/C [5]: 3.07% | viability, T/C [6]: 5.83% | viability, T/C [7]: 9.1% | viability, T/C [8]: 3.91% | viability, T/C [9]: 1.38% | viability, T/C [10]: 0.45% | viability, T/C [11]: 3.75% | viability, T/C [12]: 7.17% | viability, T/C [13]: 9.14% | viability, T/C [14]: 3.32% | viability, T/C [15]: 1.45% | viability, T/C [16]: 0.82% | viability, T/C [17]: 4.73% | viability, T/C [18]: 9.99% | viability, T/C [19]: 7.32% | viability, T/C [20]: 2.1% | viability, T/C [21]: 0.65% | viability, T/C [22]: 0.52% | viability, T/C [23]: 3.63% | viability, T/C [24]: 11.6% | viability, T/C [25]: 9.23% | viability, T/C [26]: 1.54% | viability, T/C [27]: 0.4% | viability, T/C [28]: 0.63% | viability, T/C [29]: 5.3% | viability, T/C [30]: 7.54% | viability, T/C [31]: 7.12% | viability, T/C [32]: 2.27% | viability, T/C [33]: 0.51% | viability, T/C [34]: 1.07% | viability, T/C [35]: 5.51% | viability, T/C [36]: 9.57%

From PubChem BioAssay AID2060616 (Molecular Pharmacology Branch, DTP, NCI, 2025)
